Measured values: article PMC10380083, “Synthesis of Prostate-Specific Membrane Antigen-Targeted Bimodal Conjugates of Cytotoxic Agents and Antiandrogens and Their Comparative Assessment with Monoconjugates” (International Journal of Molecular Sciences, 2023)
Like-named read-outs stand apart in the source and are kept apart here. Where a SMILES comes first, the peptide text is derived from it. [ ]: non-standard residue; d: D form. The star is where a group is joined. Dolaproine = CO[C@@H]([C@@H]1CCCN1)[C@@H](C)C(=O)O; Dil = CC[C@H](C)[C@H](NC)[C@@H](CC(=O)O)OC; X1 = C[C@@H](N*)[C@@H](O)c1ccccc1; NMeV = CN[C@H](C(=O)O)C(C)C

Assays:
[1] = system: 22Rv1 human prostate carcinoma xenograft; details: 22Rv1 xenograft; for tumor volume V±m: i.v. triple injection, single dose 132.3 nM/kg; for Tumor growth inhibition: i.v. 132.3 nM/kg three times
Description: (§1) We carried out in vivo studies of the efficacy of the obtained bimodal conjugates. […] Also, conjugate I (Figure 5) was used as a reference compound. An isotonic (0.9%) sodium chloride solution was used as a negative control. Studies were carried out in xenograft models of 22Rv1 human prostate carcinoma and PC-3 prostate adenocarcinoma in immunodeficient Balb/c nude mice (male).
(§2) Two cell lines were used: human prostate carcinoma 22Rv1 and prostate adenocarcinoma PC-3 (ATCC collection). Cells were cultured in 75 cm^2 vials (Costar, Washington, DC, USA) in RPMI-1640 medium (PanEco, Russia) with the addition of 2 mM L-glutamine (PanEco, Russia) and 10% fetal calf serum (HyClone, Logan, UT, USA) under standard conditions of cultivation (in a humidified atmosphere at 37 °C and 5% CO2). Cells of 6–10 passages were used to inoculate the animals. Cell suspension was prepared with a concentration of 5 × 10^6 cells in 0.05 mL of the 22Rv1 medium and in 0.1 mL of the PC-3 medium. 22Rv1 cells were inoculated into animals in Matrigel (BD Matrigel Basement Membrane Matrix, BD Biosciences, San Jose, CA, USA). Manipulations with Matrigel were performed on a refrigerated plate using precooled materials, tubes and instrumentation. For animal administration, 50 μL of the cell suspension (5 × 10^6 cells) was transferred to a chilled tube containing 50 μL of Matrigel; after mixing, the cellular material (final volume of 100 μL) was injected subcutaneously into the groin area of the animal. To obtain subcutaneous xenograft PC-3, a 5 × 10^6 suspension of tumor cells was inoculated subcutaneously into the inguinal cavity of male mice in a volume of 0.1 mL.
(§3) To study the antitumor efficacy, conjugates were administered intravenously at a dose of 132.3 nM/kg to tumor-bearing mice three times at five-day intervals; administration was started 7−8 days after cell inoculation, and the tumor size was 70−90 mm^3. As a control substance, 0.9% sodium chloride solution was used. Experimental groups included five animals each. […] The mixture was dissolved in DMSO (5% of final solution) and diluted with hemodesum (30% low-molecular-weight polyvinylpyrrolidone (Mw = 8000 ± 200) saline infusion solution). The presence of tumors and their sizes, as well as the body weights of the mice, were recorded every five days during the observation of the animals. The antitumor effect was assessed by comparing the tumor volumes in the experimental and control groups as well as the amount of tumor growth inhibition (TGI, %).
(§4) Tumor volume was calculated using Formula (1):V = d1 × d2 × d3 × 0.52(1) where d1, d2 and d3 are the three mutually perpendicular dimensions of the tumor. […]
(§5) 3.2.1. In vivo evaluation of antitumor efficacy […]
(§6) intravenously at a dose of 132.3 nM/kg to tumor-bearing mice three times at 5-day intervals, the administration was started 7-8 days after cell inoculation to animals, tumor size was 70-90 mm3.
(§7) A 0.9% sodium chloride solution was used as a control substance. The experimental groups […]
(§8) The presence of tumor masses and their size, as well as the body weight of the mice, were recorded every 5 days during observation. In accordance with humane principles, animals were euthanized by placing the mice in a CO2 inhalation chamber (ZOONLAB GmbH, Germany).

[2] = system: PC-3 prostate adenocarcinoma xenograft; details: PC-3 xenograft; for tumor volume V±m: i.v. triple injection, single dose 132.3 nM/kg; for Tumor growth inhibition: i.v. 132.3 nM/kg three times
Description: as §1, §2, §3, §4, §5, §6, §7, §8

[3] = Body weight, general condition and mortality in the antitumor efficacy study; details: i.v. 132.3 nM/kg x3
Description: Animal body weight data are presented in Table S2 in the electronic supplementary materials.
as §3, with “%). […]” for “%).”
as §5, §6, §7, §8
Conjugate Method of injection Dose Number of animals 22Rv1 PC-3 […]
3.4. In vivo Efficacy Evaluation
Days after tumor implantation / mass± error, g
Conjugate 7 day 12 day 17 day […]
injection) injection) injection)
Human prostate carcinoma 22Rv1
Human prostate adenocarcinoma PC-3
Table S3. Tumor growth dynamics of 22Rv1 and PC-3 in mice with intravenous triple injection of […]
ate Days after tumor implantation / V±m, mm3

[4] = 7 day after tumor implantation (1st injection)
[5] = 12 day after tumor implantation (2nd injection)
[6] = 17 day after tumor implantation (3rd injection)
[7] = 22 day after tumor implantation
[8] = 27 day after tumor implantation
[9] = 33 day after tumor implantation
[10] = 37 day after tumor implantation
[11] = days after the start of treatment: 1
[12] = days after the start of treatment: 5
[13] = days after the start of treatment: 10
[14] = days after the start of treatment: 16
[15] = days after the start of treatment: 20

## CC[C@H](C)[C@@H]([C@@H](CC(=O)N1CCC[C@H]1[C@H](OC)[C@@H](C)C(=O)N[C@H](C)[C@@H](O)c1ccccc1)OC)N(C)C(=O)[C@@H](NC(=O)[C@@H](NC)C(C)C)C(C)C [MMAE, Monomethyl Auristatin E, reference compound] (H-[NMeV]V[Dil][Dolaproine]-X1)
[1]; [4]
  tumor volume V±m: 73.7±14.3 mm3
[1]; [5]
  tumor volume V±m: 93.6±5.7 mm3
[1]; [6]
  tumor volume V±m: 125.3 mm3
[1]; [7]
  tumor volume V±m: 211.7 mm3
[1]; [8]
  tumor volume V±m: 388.2 mm3
[1]; [9]
  tumor volume V±m: 749.3 mm3
[1]; [10]
  tumor volume V±m: 1402.3 mm3
[1]; [11]
  Tumor growth inhibition: 41.5%
[1]; [12]
  Tumor growth inhibition: 60.1%
[1]; [13]
  Tumor growth inhibition: 64.7%
[1]; [14]
  Tumor growth inhibition: 63.0%
[1]; [15]
  Tumor growth inhibition: 51.0%
[2]; [4]
  tumor volume V±m: 85.9±8.7 mm3
[2]; [5]
  tumor volume V±m: 117.9 mm3
[2]; [6]
  tumor volume V±m: 211.3 mm3
[2]; [7]
  tumor volume V±m: 330.9 mm3
[2]; [8]
  tumor volume V±m: 592.6 mm3
[2]; [9]
  tumor volume V±m: 1014.3 mm3
[2]; [10]
  tumor volume V±m: 1679.9 mm3
[2]; [11]
  Tumor growth inhibition: 29.8%
[2]; [12]
  Tumor growth inhibition: 32.1%
[2]; [13]
  Tumor growth inhibition: 29.5%
[2]; [14]
  Tumor growth inhibition: 25.4%
[2]; [15]
  Tumor growth inhibition: 38.4%
[2]; i.v. 132.3 nM/kg three times at five-day intervals, male Balb/c nude mice
  TGI, did not exceed: ≤ 38.4%
[3]; 22Rv1 xenograft mice, 7 day after tumor implantation (1st injection)
  body weight, mass ± error: 24.0 ± 1.3 g
[3]; 22Rv1 xenograft mice, 12 day after tumor implantation (2nd injection)
  body weight, mass ± error: 23.7 ± 1.3 g
[3]; 22Rv1 xenograft mice, 17 day after tumor implantation (3rd injection)
  body weight, mass ± error: 23.4 ± 1.3 g
[3]; 22Rv1 xenograft mice, 22 day after tumor implantation
  body weight, mass ± error: 23.5 ± 1.3 g
[3]; 22Rv1 xenograft mice, 27 day after tumor implantation
  body weight, mass ± error: 23.8 ± 1.3 g
[3]; 22Rv1 xenograft mice, 33 day after tumor implantation
  body weight, mass ± error: 24.0 ± 1.3 g
[3]; 22Rv1 xenograft mice, 37 day after tumor implantation
  body weight, mass ± error: 24.2 ± 1.4 g
[3]; PC-3 xenograft mice, 7 day after tumor implantation (1st injection)
  body weight, mass ± error: 22.4 ± 1.2 g
[3]; PC-3 xenograft mice, 12 day after tumor implantation (2nd injection)
  body weight, mass ± error: 22.7 ± 1.5 g
[3]; PC-3 xenograft mice, 17 day after tumor implantation (3rd injection)
  body weight, mass ± error: 22.4 ± 1.4 g
[3]; PC-3 xenograft mice, 22 day after tumor implantation
  body weight, mass ± error: 23.0 ± 1.4 g
[3]; PC-3 xenograft mice, 27 day after tumor implantation
  body weight, mass ± error: 23.1 ± 1.3 g
[3]; PC-3 xenograft mice, 33 day after tumor implantation
  body weight, mass ± error: 23.2 ± 1.2 g
[3]; PC-3 xenograft mice, 37 day after tumor implantation
  body weight, mass ± error: 23.3 ± 1.2 g
